For this data set the following is noted: especially when diluted with cream to <20% (w/w). From the text:
The phototoxic compounds can be mixed with the carrier in a solubilized form.

SMILES strings stand for the structures.

The text below walks through data of patent publication US20030083324A1, “Photosensitizing ointment” (CeramOptec Industries, Inc., priority 2000, published 2003).

Regarding `COCCO` [2-methoxy ethanol], the “toxicity to human skin” value is given as “no toxicity”.
